Data taken from patent US20080039362A1, “Combination drug therapy for reducing scar tissue formation” (Afmedica, Inc., priority 2006, published 2008).

Assays:
[1] = system: Human platelets; test: Platelet adhesion and aggregation on surfaces; type: cell-based; conditions: 30 minutes exposure; FIG. 21
Method: Platelet aggregation, used as a marker of polymer hemocompatibility, was visualized using human platelets that were exposed to PEA and a fibrinogen-coated surface for 30 minutes.

[2] = system: Human coronary artery endothelial cells (EC)
Method: Human peripheral blood monocytes were isolated by density centrifugation and magnetic separation (Miltenyi). Human platelets were purchased from the San Diego Blood Bank. Human coronary artery endothelial cells and aortic smooth muscle cells were purchased from Cambrex. Tissue culture polystyrene plates (TCPS; Falcon) with or without fibronectin coating (1 mg/ml) were used as controls.
Human coronary artery endothelial cells (EC) and aortic smooth muscle cells (SMC) were incubated on the polymers for 72 hours.

Substance | platelet adhesion and aggregation [1] | toxic effects [2]
fibrinogen | aggregated as expected | 
poly(ester amide) [PEA] |  | no toxic effects
